Test results from article PMC8305974, “Novel Hybrid Compounds Containing Benzofuroxan and Aminothiazole Scaffolds: Synthesis and Evaluation of Their Anticancer Activity” (International Journal of Molecular Sciences, 2021).
Where two headings read alike, the source gives them in different places.

Tests used:
in vitro = details: human
M-HeLa [1] = test: Cytotoxicity assay (Cytell Cell Imaging, Cell Viability Bio App); details: read-out: Cytotoxic effects (IC50) M-HeLa; cancer cell line M-HeLa; tested at 1–100 μM; mean ± SD, three repeats
HuTu 80 [2] = test: as above; details: read-out: Cytotoxic effects (IC50) HuTu 80; cancer cell line HuTu 80; tested at 1–100 μM; mean ± SD, three repeats
PANC-1 [3] = test: as above; details: read-out: Cytotoxic effects (IC50) PANC-1; cancer cell line PANC-1; tested at 1–100 μM; mean ± SD, three repeats
M-HeLa [4] = details: for IC50: human
HuTu 80 [5] = details: human
PANC-1 [6] = details: human
M-HeLa cells = test: Cell apoptosis analysis by flow cytometry (annexin V-FITC / propidium iodide); format: cell-based, human; details: 24 h
Protocol: Cell Culture. M-HeLa cells at 1 × 10^6 cells/well in a final volume of 2 mL were seeded into 6-well plates. After 24 h of incubation, various concentrations of Compounds 2f and 3f were added to wells.
Cell Apoptosis Analysis. The cells were harvested at 2000 rpm for 5 min and, then, washed twice with ice-cold PBS, followed by resuspension in binding buffer. Next, the samples were incubated with 5 μL of annexin V-FITC and 5 μL of propidium iodide for 15 min at room temperature in the dark. Finally, the cells were analyzed by flow cytometry (Guava easy Cyte, MERCK, Kenilworth Union County, NJ, USA). The experiments were repeated three times.

M-HeLa cell lines = test: Cell cycle analysis by flow cytometry (propidium iodide); format: cell-based, human; details: 24 h, control 68.1
Protocol: Cell cycle analysis by quantification of DNA content is a reliable method to investigate which phase cell cycle has been arrested, wherein propidium iodide dye is used which binds in proportion to the amount of DNA present in the cell. […] The results reveal that 3f caused an increase in % of G1 arrest. Compound 3f was on 81.4% and 83.8% at 50 and 100 µM, respectively, which is more than control cells (68.1%) (Figure 9).
The DNA content and cell-cycle distribution after genistein treatment were estimated by flow cytometry. Cell seeding, drug treatment and ethanol fixation were similar to cell proliferation assay. After washing with PBS, genistein and daidzein-treated and -fixed cells were suspended in 150 μL of PBS, then 0.5 mL phosphate-citrate buffer (0.05 M, pH 4.0) was added and the suspension was incubated at room temperature for 5 min to facilitate the extraction of low-molecular-weight DNA. Following centrifugation, the cells were resuspended in 150 μL DNA staining solution (20 μg/mL propidium iodide, 200 μg/mL […], and 0.1% Triton X-100) and incubated in the CO2 incubator (37 °C for 30 min). Cell cycle distribution was determined by fluorescence-activated cell sorting analysis of propidium iodide-stained ethanol-fixed cells using a Guava EasyCyte (Guava easy Cyte, MERCK, Kenilworth Union County, NJ, USA).

[7] = Chang Liver cells (normal liver cell line)

Row | Structure (SMILES) | IC50 (in vitro; [7]) | IC50 (M-HeLa [1]) | IC50 (HuTu 80 [2]) | IC50 (PANC-1 [3]) | IC50 (M-HeLa [4]) | IC50 (HuTu 80 [5]) | IC50 (PANC-1 [6]) | IC50 (in vitro) | other results
1 | O=c1[nH]cc(F)c(=O)[nH]1 [5-Fluorouracil, reference compound] | 72.4 ± 6.5 µM | 62 ± 4.9 µM | 65.2 ± 5.5 µM | 68.3 ± 5.7 µM | – | – | – | – | –
2 | Nc1nccs1 [Compound 2a] | – | – | – | – | 91 ± 8.3 µM | > 100 µM | > 100 µM | > 100 µM | –
3 | Cc1cnc(N)s1 [Compound 2b] | > 100 µM | 92 ± 7.9 µM | > 100 µM | > 100 µM | – | – | – | – | –
4 | CCOC(=O)c1csc(N)n1 [Compound 2c] | 95.4 ± 8.7 µM | 63.3 ± 5.7 µM | > 100 µM | > 100 µM | – | – | – | – | –
5 | Cc1cnc(Nc2ccccc2)s1 [Compound 2e] | > 100 µM | 92 ± 8.2 µM | > 100 µM | > 100 µM | – | – | – | – | –
6 | COc1ccc(Nc2nccs2)cc1 [Compound 2f] | > 100 µM | 93.8 ± 8.4 µM | > 100 µM | > 100 µM | – | – | – | – | –
7 | O=[N+]([O-])c1cc([N+](=O)[O-])c2no[n+]([O-])c2c1Nc1nccs1 [Compound 3a, 4,6-dinitro-7-(thiazol-2-ylamino)benzo[c][1,2,5]oxadiazole 1-oxide] | – | – | – | – | 61 ± 5.4 µM | > 100 µM | > 100 µM | > 100 µM | Cytotoxicity in words, M-HeLa (M-HeLa [4]): moderate cytotoxicity; Toxicity in words, normal cells (Chang Liver) (Chang Liver): not toxic
8 | Cc1cnc(Nc2c([N+](=O)[O-])cc([N+](=O)[O-])c3no[n+]([O-])c23)s1 [Compound 3b, 7-(5-methylthiazol-2-ylamino)-4,6-dinitrobenzo[c][1,2,5]oxadiazole 1-oxide] | – | – | – | – | 70 ± 6.2 µM | > 100 µM | > 100 µM | > 100 µM | –
9 | CCOC(=O)c1cnc(Nc2c([N+](=O)[O-])cc([N+](=O)[O-])c3no[n+]([O-])c23)s1 [Compound 3c, 7-(5-(ethoxycarbonyl)thiazol-2-ylamino)-4,6-dinitrobenzo[c][1,2,5]oxadiazole 1-oxide] | – | – | – | – | 95.8 ± 8.4 µM | > 100 µM | > 100 µM | 100 ± 9.4 µM | –
10 | O=[N+]([O-])c1cc([N+](=O)[O-])c2no[n+]([O-])c2c1N(c1ccccc1)c1nccs1 [Compound 3d, 4,6-dinitro-7-(phenyl(thiazol-2-yl)amino)benzo[c][1,2,5]oxadiazole 1-oxide] | – | – | – | – | 61 ± 5.6 µM | > 100 µM | > 100 µM | 86.1 ± 7.8 µM | Cytotoxicity in words, M-HeLa (M-HeLa [4]): moderate cytotoxicity; Toxicity in words, normal cells (Chang Liver) (Chang Liver): not toxic
11 | Cc1cnc(N(c2ccccc2)c2c([N+](=O)[O-])cc([N+](=O)[O-])c3no[n+]([O-])c23)s1 [Compound 3e, 7-((5-methylthiazol-2-yl)(phenyl)amino)-4,6-dinitrobenzo[c][1,2,5]oxadiazole 1-oxide] | – | – | – | – | 79 ± 6.3 µM | > 100 µM | > 100 µM | 85.8 ± 7.4 µM | –
12 | COc1ccc(N(c2nccs2)c2c([N+](=O)[O-])cc([N+](=O)[O-])c3no[n+]([O-])c23)cc1 [Compound 3f, 7-((4-methoxyphenyl)(thiazol-2-yl)amino)-4,6-dinitrobenzo[c][1,2,5]oxadiazole 1-oxide] | – | – | – | – | 56.6 ± 4.7 µM | > 100 µM | > 100 µM | > 100 µM | Early apoptotic cells (Ea) (M-HeLa cells; 50 µM): 10.73%; Early apoptotic cells (Ea) (M-HeLa cells; 100 µM): 17.29%; Cells in G1 phase (M-HeLa cell lines; 50 µM): 81.4%; Cells in G1 phase (M-HeLa cell lines; 100 µM): 83.8%; Cytotoxicity in words, M-HeLa (M-HeLa [4]): moderate cytotoxicity; Toxicity in words, normal cells (Chang Liver) (Chang Liver): not toxic
